The structures appear in SMILES notation.

For assay [1], the species on record is Oryctolagus cuniculus. Kind of assay: Inhibition of anti-19F rabbit polyclonal antibody binding to Streptococcus pneumoniae 19F capsular polysaccharide coated on to plates at 1 mg/ml after overnight incubation ar 4 to 8 degC by competitive ELISA. On the technique in general: ELISA stands for enzyme-linked immunosorbent assay.
The species entered for assay [2] is Oryctolagus cuniculus. The assay is described as follows: Inhibition of binding of anti-19A rabbit polyclonal antibody to Streptococcus pneumoniae 19A capsular polysaccharide coated on to plates at 1 mg/ml after overnight incubation at 4 to 8 degC by competitive ELISA.
Assay [3] can be described thus: Inhibition of anti-19F rabbit polyclonal antibody binding to Streptococcus pneumoniae 19F capsular polysaccharide coated on to plates after overnight incubation ar 4 to 8 degC by competitive ELISA. Details: species or system Oryctolagus cuniculus.
Assay [4] is described as follows: Inhibition of binding of anti-19A rabbit polyclonal antibody to Streptococcus pneumoniae 19A capsular polysaccharide coated on to plates after overnight incubation at 4 to 8 degC by competitive ELISA. Further details: species or system Oryctolagus cuniculus.

`CC(=O)N[C@@H]1[C@H](O[C@H]2[C@H](O)[C@@H](O)[C@@H](O[C@@H]3[C@@H](O)[C@H](C)O[C@@H](OCCCN)[C@@H]3O)O[C@@H]2CO)O[C@H](CO)[C@@H](O)[C@@H]1O.Cl`: the inhibition in the assay filed under Oryctolagus cuniculus [1] came out at 32%; in the assay listed under Oryctolagus cuniculus [2], 41%. The results for the EC50 in assay [3] and in assay [4] were 2.7 ×10⁻² mg/ml and 1.3 ×10⁻³ mg/ml, respectively.

As a reminder, the inhibition is the share of the control response that was lost under treatment. Lower therefore signals a weak effect.
